Test [1] deals with Macrophage. The test can be described thus: Antiinflammatory activity in C57BL/6J mouse macrophages assessed as inhibition of LPS-stimulated IL6 release pretreated for 48 hrs before LPS challenge measured after 24 hrs by ELISA. In kind it is functional, cell-based. (An ELISA detects its analyte on a solid surface through an enzyme-linked reagent.)
Test [2] deals with T1, Peroxisome proliferator-activated receptor gamma (Mus musculus) (UniProt P37238).
T1 sequence (whole entry): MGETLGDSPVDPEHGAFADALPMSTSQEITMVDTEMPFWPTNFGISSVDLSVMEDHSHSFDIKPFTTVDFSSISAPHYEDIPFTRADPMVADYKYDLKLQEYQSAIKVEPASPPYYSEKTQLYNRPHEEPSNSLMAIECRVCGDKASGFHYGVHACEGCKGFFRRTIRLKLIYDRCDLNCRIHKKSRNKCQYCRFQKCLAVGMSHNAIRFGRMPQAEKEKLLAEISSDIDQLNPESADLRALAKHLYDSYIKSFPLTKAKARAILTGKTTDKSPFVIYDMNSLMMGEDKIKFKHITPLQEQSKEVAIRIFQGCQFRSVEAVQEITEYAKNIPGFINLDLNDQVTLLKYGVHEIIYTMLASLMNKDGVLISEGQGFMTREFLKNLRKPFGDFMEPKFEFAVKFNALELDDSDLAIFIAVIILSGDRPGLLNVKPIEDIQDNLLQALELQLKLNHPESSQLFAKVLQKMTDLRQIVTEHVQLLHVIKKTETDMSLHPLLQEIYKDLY
The test can be described thus: Binding affinity to PPARgamma in C57BL/6J mouse macrophages assessed as increase in CD36 mRNA level at 500 nM after 48 hrs by real-time PCR analysis. (In general: Quantitative PCR measures a nucleic acid by following its amplification.)

For test [3], the target named is T2, Fatty acid-binding protein, intestinal (Homo sapiens, UniProt P12104).
T2 sequence (P12104 whole entry): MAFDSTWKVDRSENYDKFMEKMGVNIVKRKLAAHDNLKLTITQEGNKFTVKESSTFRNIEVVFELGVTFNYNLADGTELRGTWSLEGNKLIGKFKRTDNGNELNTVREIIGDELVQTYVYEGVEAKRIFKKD
The test can be described thus: Displacement of […] 1-anilinonaphthalene 8-sulfonic acid from IFABP expressed in Escherichia coli BL21 (DE3) by fluorescence spectrophotometry.

Test [4] concerns the target T3, Fatty acid-binding protein, adipocyte (Homo sapiens, UniProt P15090). The experiment in a line: Binding affinity to AFABP in forskolin-stimulated […] C8PA cells assessed as blocked of protein interaction with hormone sensitive lipase at 1 uM after 2 to 4 hrs by FRET analysis. In kind it is cell-based.
Target sequence in this assay (P15090 2-132 limits assumed): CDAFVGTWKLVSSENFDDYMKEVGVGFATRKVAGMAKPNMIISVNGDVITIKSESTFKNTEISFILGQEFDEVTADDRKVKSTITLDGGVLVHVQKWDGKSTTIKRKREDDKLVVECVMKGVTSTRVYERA
Test [5] relates to Macrophage. The test can be described thus: Antiinflammatory activity in C57BL/6J mouse macrophages assessed as inhibition of LPS-stimulated MCP1 release pretreated for 48 hrs before LPS challenge measured after 24 hrs by ELISA. It counts as functional, cell-based.
Test [6] deals with T3, Fatty acid-binding protein, adipocyte. The experiment in a line: Binding affinity to AFABP in forskolin-stimulated […] C8PA cells assessed as blocked of protein interaction with hormone sensitive lipase at 10 uM after 2 to 4 hrs by FRET analysis. It counts as cell-based.
Target sequence in this assay (P15090 2-132 limits assumed): as above
The target is the same in test [7]. The experiment in a line: Binding affinity to AFABP in […] C8PA cells assessed as blocked of protein interaction with hormone sensitive lipase at 1 uM after 2 to 4 hrs by FRET analysis. In kind it is cell-based.
Target sequence in this assay (P15090 2-132 limits assumed): as above
The target is the same in test [8]. The experiment in a line: Displacement of […] 1-anilinonaphthalene 8-sulfonic acid from AFABP expressed in Escherichia coli BL21 (DE3) by fluorescence spectrophotometry.
Target sequence in this assay (P15090 whole entry): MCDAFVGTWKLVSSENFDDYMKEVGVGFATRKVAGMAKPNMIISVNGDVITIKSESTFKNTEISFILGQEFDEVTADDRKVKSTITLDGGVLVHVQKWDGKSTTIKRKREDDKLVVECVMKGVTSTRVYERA
For test [9], the system named is Macrophage. The test can be described thus: Antiinflammatory activity in C57BL/6J mouse macrophages assessed as inhibition of LPS-stimulated TNFalpha release pretreated for 48 hrs before LPS challenge measured after 24 hrs by ELISA. In kind it is functional, cell-based.
Test [10] addresses T1, Peroxisome proliferator-activated receptor gamma (Mus musculus). The test can be described thus: Binding affinity to PPARgamma in C57BL/6J mouse macrophages assessed as increase in Cpt1alpha mRNA level at 500 nM after 48 hrs by real-time PCR analysis.
Test [11] concerns the target T3, Fatty acid-binding protein, adipocyte. The test can be described thus: Binding affinity to AFABP in […] C8PA cells assessed as blocked of protein interaction with hormone sensitive lipase at 10 uM after 2 to 4 hrs by FRET analysis. In kind it is cell-based.
Target sequence in this assay (P15090 2-132 limits assumed): as the sequence (P15090 2-132 limits assumed) above
For test [12], the target named is T4, Peroxisome proliferator-activated receptor gamma (Homo sapiens) (UniProt P37231).
T4 sequence (whole entry): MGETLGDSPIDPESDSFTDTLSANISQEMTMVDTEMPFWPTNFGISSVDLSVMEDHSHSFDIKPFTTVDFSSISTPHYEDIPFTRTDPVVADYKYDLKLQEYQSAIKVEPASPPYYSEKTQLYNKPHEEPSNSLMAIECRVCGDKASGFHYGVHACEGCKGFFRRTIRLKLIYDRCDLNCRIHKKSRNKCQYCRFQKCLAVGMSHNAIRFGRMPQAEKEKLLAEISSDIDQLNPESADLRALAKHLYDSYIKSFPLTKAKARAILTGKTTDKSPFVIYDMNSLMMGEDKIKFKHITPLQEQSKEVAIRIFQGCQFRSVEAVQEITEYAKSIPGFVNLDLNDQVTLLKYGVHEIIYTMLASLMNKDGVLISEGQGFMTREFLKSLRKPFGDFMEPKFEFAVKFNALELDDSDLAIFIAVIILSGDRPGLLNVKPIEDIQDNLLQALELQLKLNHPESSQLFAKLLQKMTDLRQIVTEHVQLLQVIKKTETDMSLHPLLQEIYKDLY
The test can be described thus: Activation of PPARgamma expressed in african green monkey CV1 cells at 0.5 to 25 uM after 24 hrs by luciferase reporter gene assay. It counts as cell-based. The note with it: CV-1. In general terms: Reporter assays use an easily measured gene product as a stand-in for the process of interest.

For test [13], the target named is T5, Fatty acid-binding protein, liver (Homo sapiens, UniProt P07148).
T5 sequence (P07148 whole entry): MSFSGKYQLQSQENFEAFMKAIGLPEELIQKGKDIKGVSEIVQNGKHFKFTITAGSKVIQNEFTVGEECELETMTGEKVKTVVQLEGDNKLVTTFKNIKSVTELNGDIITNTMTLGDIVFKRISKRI
The test can be described thus: Displacement of […] 1-anilinonaphthalene 8-sulfonic acid from LFABP expressed in Escherichia coli BL21 (DE3) by fluorescence spectrophotometry.

Test [14] addresses Fatty acid-binding protein 5 (Homo sapiens, UniProt Q01469). The experiment in a line: Displacement of […] 1-anilinonaphthalene 8-sulfonic acid from EFABP expressed in Escherichia coli BL21 (DE3) by fluorescence spectrophotometry.
Test [15] deals with Fatty acid-binding protein, heart (Homo sapiens, UniProt P05413). The experiment in a line: Displacement of […] 1-anilinonaphthalene 8-sulfonic acid from HFABP expressed in Escherichia coli BL21 (DE3) by fluorescence spectrophotometry.
Chain of Fatty acid-binding protein, heart (P05413 whole entry): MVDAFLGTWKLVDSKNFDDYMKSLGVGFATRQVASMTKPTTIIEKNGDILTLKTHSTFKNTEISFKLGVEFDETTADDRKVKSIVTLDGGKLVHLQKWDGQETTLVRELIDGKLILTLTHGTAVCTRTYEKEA
Test [16] concerns the target T1, Peroxisome proliferator-activated receptor gamma (Mus musculus). The test can be described thus: Binding affinity to PPARgamma in C57BL/6J mouse macrophages assessed as increase in CD36 mRNA level at 5 uM after 48 hrs by real-time PCR analysis.
The target is the same in test [17]. The test can be described thus: Binding affinity to PPARgamma in C57BL/6J mouse macrophages assessed as increase in Cpt1alpha mRNA level at 5 uM after 48 hrs by real-time PCR analysis.

Activity calls are given as the source filed them. The calls are words filed in the database; no cut-off is given here.

Chain of Fatty acid-binding protein 5 (Q01469 whole entry): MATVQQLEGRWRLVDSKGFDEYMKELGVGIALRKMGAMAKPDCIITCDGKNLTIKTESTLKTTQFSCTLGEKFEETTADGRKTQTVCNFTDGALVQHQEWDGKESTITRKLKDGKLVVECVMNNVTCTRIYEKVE

As usually defined, the Ki is a measure of affinity in units of concentration, obtained from inhibition or displacement. Consider `COC(=O)c1sc(-c2cccs2)cc1NC(=O)/C=C/C(=O)O`, for which the outcome (in the test with Macrophage [1]; in the test with Macrophage [5]; in [6]; in test [7]; with Macrophage [9]; in test [11]) was Active. In addition, the outcome in [2], in test [4], in [10] and in test [12] was inactive. The Ki is 6.57 µM in test [3]; 0.67 µM in test [8]; 8.17 µM in test [13]; 3.4 µM in test [14]; 9.07 µM in test [15].
For the compound `CCCCC/C=C/C=C1/C(=O)C=C[C@@H]1C/C=C\CCCC(=O)O`, the result in [16] and in test [17] was Active.
